SMILES strings stand for the structures. Where only a bound is given, the exact number is not on record here.

For this experiment, the target named is T1, CXCR3 (Homo sapiens, UniProt P49682).
T1 construct: host or cells: CHO-K1 (cAMP Hunter CHOK1 CXCR3 Gi cell line)
T1 sequence (P49682 1-368): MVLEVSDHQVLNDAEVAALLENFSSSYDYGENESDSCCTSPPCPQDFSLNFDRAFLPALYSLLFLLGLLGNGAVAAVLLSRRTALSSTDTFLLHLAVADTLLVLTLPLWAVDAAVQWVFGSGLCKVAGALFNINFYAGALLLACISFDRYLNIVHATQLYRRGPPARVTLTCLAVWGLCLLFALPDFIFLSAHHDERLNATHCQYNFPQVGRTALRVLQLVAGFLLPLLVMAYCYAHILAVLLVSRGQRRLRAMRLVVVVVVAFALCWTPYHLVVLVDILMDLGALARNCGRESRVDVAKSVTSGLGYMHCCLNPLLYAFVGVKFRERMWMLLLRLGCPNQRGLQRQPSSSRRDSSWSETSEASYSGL
Kind of experiment: CXCR3 cAMP agonist assay (cAMP Hunter CHOK1 CXCR3 Gi cell line, forskolin-stimulated, HitHunter cAMP detection). The note with it: cAMP Hunter CHOK1 CXCR3 Gi cells, 20 μM forskolin, 30 minutes; read-out: Activity (CXCR3 cAMP agonist assay compound EC50). It counts as cell-based. The method, boiled down: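 CHOK1 cells expressing human CXCR3 with Gi coupling, 50,000/well in suspension in HBSS/10 mM HEPES/0.1% BSA pH 7.4, were co-treated with 20 μM forskolin and compound (12-point, 0-10 μM, 1% DMSO) for 30 min. cAMP was read by enzyme-complementation luminescence; CXCL11 dose response set maximum efficacy.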
By EC50 is commonly meant the concentration needed to bring the measured effect to its halfway point. For the compound `Cc1cc(NC(=O)[C@H](CCN)NC(=O)[C@@H]2Cc3ccccc3CN2C(=O)CCC(=O)N2CCC[C@H]2C(F)F)ccc1Cl` [Compound 12-143], the EC50 is below 50 nM.
As for `Cc1cc(NC(=O)[C@H](CCN)NC(=O)[C@@H]2Cc3ccccc3CN2C(=O)CCC(=O)NCCOC(C)C)ccc1Cl` [Compound 12-89], the EC50 was above 500 nM.
Turning to `NCC[C@H](NC(=O)[C@@H]1Cc2ccccc2CN1C(=O)CCC(=O)c1ccccc1)C(=O)Nc1cccc(C(F)(F)F)c1` [Compound 2-6], the EC50 fell in the range of 50 to 250 nM.
As for `Cc1cc(NC(=O)[C@H](CCN)NC(=O)[C@@H]2Cc3ccccc3CN2C(=O)CCC(=O)N2CCN3CCC[C@@H]3C2)ccc1Cl` [Compound 12-110], the EC50 was below 50 nM.
With `NCCCC[C@H](NC(=O)[C@@H]1Cc2ccccc2CN1C(=O)CCC(=O)c1ccccc1)C(=O)Nc1ccc(C(F)(F)F)c(Cl)c1` [Compound 1-22], the EC50 was in the range of 250 to 500 nM.
Under `Cc1cc(NC(=O)[C@H](CCN)NC(=O)[C@@H]2Cc3ccccc3CN2C(=O)CCC(=O)N2CCN(C(C)(C)C)CC2)ccc1Cl` [Compound 12-102] stands 50 to 250 nM; under `Cc1cc(NC(=O)[C@H](CCN)NC(=O)[C@@H]2Cc3ccccc3CN2C(=O)CCC(=O)c2ccccc2)ccc1C(F)(F)F` [Compound 2-27], 50 to 250 nM.
Turning to `[2H]C([2H])([2H])N1CCN(C(=O)CCC(=O)N2Cc3ccccc3C[C@H]2C(=O)N[C@@H](CCN)C(=O)Nc2ccc(Cl)c(C)c2)CC1` [Compound 12-118], the EC50 was below 50 nM.
`Cc1cc(NC(=O)[C@H](CCN)NC(=O)[C@@H]2Cc3ccccc3CN2C(=O)CCC(=O)N2C[C@@H](C)O[C@@H](C)C2)ccc1Cl` [Compound 12-1, (S)—N—((S)-4-amino-1-((4-chloro-3-methylphenyl)amino)-1-oxobutan-2-yl)-2-(4-((2R,6S)-2,6-dimethylmorpholino)-4-oxobutanoyl)-1,2,3,4-tetrahydroisoquinoline-3-carboxamide]: the EC50 fell in the range of 50 to 250 nM.
For the compound `NCCCC[C@H](NC(=O)[C@@H]1Cc2ccccc2CN1C(=O)CCC(=O)c1ccccc1)C(=O)Nc1ccc(C(F)(F)F)c(F)c1` [Compound 1-19], the EC50 fell in the range of 250 to 500 nM.
Regarding `COC[C@@H]1CCCN1C(=O)CCC(=O)N1Cc2ccccc2C[C@H]1C(=O)N[C@@H](CCN)C(=O)Nc1ccc(Cl)c(C)c1` [Compound 12-134], the EC50 lay in the range of 50 to 250 nM.
Regarding `NCC[C@H](NC(=O)[C@@H]1Cc2ccccc2CN1C(=O)CCC(=O)N1CCCCC1C(F)F)C(=O)Nc1ccc(Cl)c(Cl)c1F` (some centres unmarked) [Compound 15-56], the EC50 is below 50 nM.
`CC1(C)CCN(C(=O)CCC(=O)N2Cc3ccccc3C[C@H]2C(=O)N[C@@H](CCN)C(=O)Nc2ccc(Cl)c(Cl)c2F)CC1` [Compound 15-1, (S)—N—((S)-4-amino-1-((3,4-dichloro-2-fluorophenyl)amino)-1-oxobutan-2-yl)-2-(4-(4,4-dimethylpiperidin-1-yl)-4-oxobutanoyl)-1,2,3,4-tetrahydroisoquinoline-3-carboxamide]: the concentration giving a half-maximal response (EC50) was below 50 nM.
On to `CN1CN(C(=O)CCC(=O)N2Cc3ccccc3C[C@H]2C(=O)N[C@@H](CCN)C(=O)Nc2ccc(Cl)c(Cl)c2F)CC1=O` [Compound 15-45], for which the EC50 was 250 to 500 nM.
With `Cc1cc(NC(=O)[C@H](CCNCC(F)(F)F)NC(=O)[C@@H]2Cc3ccccc3CN2C(=O)CCC(=O)c2ccccc2)ccc1Cl` [Compound 8-6], the EC50 was 50 to 250 nM.
Under `COc1cccc(NC(=O)[C@H](CCCCN)NC(=O)[C@@H]2Cc3ccccc3CN2C(=O)CCC(=O)c2ccccc2)c1` [Compound 1-11] stands 250 to 500 nM; under `Cc1cc(NC(=O)[C@H](Cc2c[nH]cn2)NC(=O)[C@@H]2Cc3ccccc3CN2C(=O)CCC(=O)c2ccccc2)ccc1Cl` [Compound 4-8], below 50 nM.
As to `O=C(CCC(=O)N1Cc2ccccc2C[C@H]1C(=O)NC1(C(=O)Nc2ccc3c(c2)CCC3)CCNCC1)c1ccccc1` [Compound 13-1], the EC50 is below 50 nM.
In the case of `Cc1cc(NC(=O)[C@H](CCN)NC(=O)[C@@H]2Cc3ccccc3CN2C(=O)CCC(=O)N2CCCC2(C)C)ncc1Cl` [Compound 12-157], the EC50 was below 50 nM.
On to `CCN(CC)C(=O)CCC(=O)N1Cc2ccccc2C[C@H]1C(=O)N[C@@H](CCN)C(=O)Nc1ccc(Cl)c(C)c1` [Compound 12-14], for which the EC50 lay within 50 to 250 nM.
Take `NCC[C@H](NC(=O)[C@@H]1Cc2ccccc2CN1C(=O)CCC(=O)c1ccccc1)C(=O)Nc1ccc(Cl)cc1F` [Compound 2-9]: the EC50 lay within 50 to 250 nM.
Consider `NC12CC(CC(NC(=O)[C@@H]3Cc4ccccc4CN3C(=O)CCC(=O)c3ccccc3)C(=O)Nc3ccc(Cl)c(Cl)c3F)(C1)C2` (mixture of isomers) [Compound 22-3], for which the EC50 was below 50 nM.
As to `Cc1cc(NC(=O)[C@H](CCN)NC(=O)[C@@H]2Cc3ccccc3CN2C(=O)CCC(=O)N2CCC3(CCC3)C2)ccc1Cl` [Compound 12-94], the concentration giving a half-maximal response (EC50) was below 50 nM.
As for `Cc1cc(NC(=O)[C@H](CCN)NC(=O)[C@@H]2Cc3ccccc3CN2C(=O)CCC(=O)N2CC[C@@H](N(C)C)C2)ccc1Cl` [Compound 12-50], the EC50 was below 50 nM.
For the compound `CCc1cccc(NC(=O)[C@H](CCN)NC(=O)[C@@H]2Cc3ccccc3CN2C(=O)CCC(=O)c2ccccc2)c1OC` [Compound 13-5], the EC50 fell in the range of 50 to 250 nM.
Take `Cc1ccc(NC(=O)[C@H](CCCNC(=N)N)NC(=O)[C@@H]2Cc3ccccc3CN2C(=O)CCC(=O)c2ccccc2)cc1C` [Compound 1-33]: the EC50 was below 50 nM.
In the case of `COc1cc2c(cc1NC(=O)[C@H](CCN)NC(=O)[C@@H]1Cc3ccccc3CN1C(=O)CCC(=O)c1ccccc1)CCCC2` [Compound 2-59], the EC50 lay in the range of 250 to 500 nM.
With `Cc1cc(NC(=O)[C@H](CCN)NC(=O)[C@@H]2Cc3ccccc3CN2C(=O)CCC(=O)N2CCN(C)C(=O)C2)ccc1Cl` [Compound 12-37], the EC50 lay in the range of 50 to 250 nM.
In the case of `Cc1ccc(NC(=O)[C@H](CCN)NC(=O)[C@@H]2Cc3ccccc3CN2C(=O)CCC(=O)c2ccccc2)c(OC(F)(F)F)c1` [Compound 13-7], the EC50 is 50 to 250 nM.
The figure for `Cc1cc(C#N)c(NC(=O)[C@H](CCN)NC(=O)[C@@H]2Cc3ccccc3CN2C(=O)CCC(=O)c2ccccc2)cc1Cl` [Compound 35-2] is below 50 nM; for `CC(=O)N1CCN(C(=O)CCC(=O)N2Cc3ccccc3C[C@H]2C(=O)N[C@@H](CCN)C(=O)Nc2ccc(Cl)c(C)c2)CC1` [Compound 12-106] it is 250 to 500 nM.
As to `Cc1cc(NC(=O)[C@H](CCCCN)NC(=O)[C@@H]2Cc3ccccc3CN2C(=O)CCC(=O)c2ccccc2)ccc1Cl` (stereo in doubt) [Compound 4-2, (S)—N—((S)-6-amino-1-((4-chloro-3-methylphenyl)amino)-1-oxohexan-2-yl)-2-(4-oxo-4-phenylbutanoyl)-1,2,3,4-tetrahydroisoquinoline-3-carboxamide], the EC50 fell in the range of 250 to 500 nM.
In the case of `N#Cc1ccccc1NC(=O)[C@H](CCN)NC(=O)[C@@H]1Cc2ccccc2CN1C(=O)CCC(=O)c1ccccc1` [Compound 27-4], the EC50 was below 50 nM.
In the case of `Cc1cc(NC(=O)[C@H](CCN)NC(=O)[C@@H]2Cc3ccccc3CN2C(=O)CCC(=O)N2CCC3(CCC3)CC2)ccc1Cl` [Compound 12-59], the EC50 was below 50 nM.
In the case of `CCc1c(C)cccc1NC(=O)[C@H](CCN)NC(=O)[C@@H]1Cc2ccccc2CN1C(=O)CCC(=O)c1ccccc1` [Compound 2-53], the EC50 was in the range of 50 to 250 nM.
Take `Cc1c(Cl)ccc(NC(=O)[C@H](CCN)NC(=O)[C@@H]2Cc3ccccc3CN2C(=O)CCC(=O)N2CCCC3(CCC3)C2)c1Cl` [Compound 15-51]: the EC50 was below 50 nM.
`Cc1cccc(F)c1NC(=O)[C@H](CCN)NC(=O)[C@@H]1Cc2ccccc2CN1C(=O)CCC(=O)c1ccccc1` [Compound 14-5]: the EC50 was 250 to 500 nM.
Under `Cc1cccc(NC(=O)C2(NC(=O)[C@@H]3Cc4ccccc4CN3C(=O)CCC(=O)c3ccccc3)CCNCC2)c1Cl` [Compound 11-1, (S)—N-(4-((2-chloro-3-methylphenyl)carbamoyl)piperidin-4-yl)-2-(4-oxo-4-phenylbutanoyl)-1,2,3,4-tetrahydroisoquinoline-3-carboxamide] stands above 500 nM.
As to `Cc1cc(NC(=O)[C@H](CCN)NC(=O)[C@@H]2Cc3ccccc3CN2C(=O)CCC(=O)N2[C@H](C)CCC[C@@H]2C)ccc1Cl` [Compound 12-43], the EC50 is below 50 nM.
As to `NCC[C@H](NC(=O)[C@@H]1Cc2ccccc2CN1C(=O)CCC(=O)c1ccccc1)C(=O)Nc1ccc(F)c(C(F)(F)F)c1` [Compound 2-14], the EC50 is below 50 nM.
With `Cc1cc(NC(=O)[C@H](CCN)NC(=O)[C@@H]2Cc3ccccc3CN2C(=O)CCC(=O)N2CCCCC2(C)C)ccc1Cl` [Compound 12-26], the EC50 was below 50 nM.
For the compound `N#Cc1c(NC(=O)[C@H](CCN)NC(=O)[C@@H]2Cc3ccccc3CN2C(=O)CCC(=O)c2ccccc2)ccc2c1CCC2` [Compound 35-1, (S)—N—((S)-4-amino-1-((4-cyano-2,3-dihydro-1H-inden-5-yl)amino)-1-oxobutan-2-yl)-2-(4-oxo-4-phenylbutanoyl)-1,2,3,4-tetrahydroisoquinoline-3-carboxamide], the EC50 was below 50 nM.
Under `Cc1cc(NC(=O)[C@H](CCN)NC(=O)[C@@H]2Cc3ccccc3CN2C(=O)CCC(=O)N2CCN(c3ccccc3)CC2)ccc1Cl` [Compound 12-101] stands above 500 nM.
The figure for `Cc1cc(NC(=O)[C@H](CCN)NC(=O)[C@@H]2Cc3ccccc3CN2C(=O)CCC(=O)NCCC(F)(F)F)ccc1Cl` [Compound 12-90] is 50 to 250 nM.

The values are drawn from patent US11040954B1, “CXCR3 receptor agonists” (RECEPTOS LLC, priority 2016, dated 2021).
